According to ChEMBL document CHEMBL3822364, “Synthesis, characterization and antimicrobial activity of novel Schiff base tethered boronate esters of 1,2-O-isopropylidene-α-d-xylofuranose” (2016):
≈ marks a conversion by molar mass, not a printed value. Calls of active or inactive are those of the source. The calls are words filed in the database; no cut-off is given here.

Experiments:
[1] = system: Streptococcus mutans; experiment: Antibacterial activity against Streptococcus mutans MTCC 497 assessed as zone of inhibition at 100 ug/well measured after 24 hrs by agar well diffusion method; assay type: functional; settings: MTCC 497, 24 h, read-out: DIZ
[2] = system: Micrococcus luteus; experiment: Antibacterial activity against Micrococcus luteus MTCC 106 assessed as zone of inhibition at 100 ug/well measured after 24 hrs by agar well diffusion method; assay type: functional; settings: MTCC 106, 24 h, read-out: DIZ
[3] = system: Staphylococcus aureus; experiment: Antibacterial activity against Staphylococcus aureus MTCC 3160 assessed as zone of inhibition at 100 ug/well measured after 24 hrs by agar well diffusion method; assay type: functional; settings: MTCC 3160, 24 h, read-out: DIZ
[4] = system: Salmonella paratyphi; experiment: Antibacterial activity against Salmonella paratyphi assessed as zone of inhibition at 100 ug/well measured after 24 hrs by agar well diffusion method; assay type: functional, Salmonella enterica subsp. enterica serovar Paratyphi A; settings: Salmonella enterica, read-out: DIZ
[5] = system: Salmonella typhi; experiment: Antibacterial activity against Salmonella typhi assessed as zone of inhibition at 100 ug/well measured after 24 hrs by agar well diffusion method; assay type: functional, Salmonella enterica subsp. enterica serovar Typhi; settings: Salmonella enterica, read-out: DIZ
[6] = system: Klebsiella pneumoniae; experiment: Antibacterial activity against Klebsiella pneumoniae MTCC 3384 assessed as zone of inhibition at 100 ug/well measured after 24 hrs by agar well diffusion method; assay type: functional; settings: MTCC 3384, 24 h, read-out: DIZ
[7] = system: Candida albicans; experiment: Antifungal activity against Candida albicans MTCC 3017 assessed as zone of inhibition at 100 ug/well measured after 48 hrs by agar well diffusion method; assay type: functional; settings: MTCC 3017, 48 h, read-out: DIZ
[8] = system: Aspergillus fumigatus; experiment: Antifungal activity against Aspergillus fumigatus MTCC 343 assessed as zone of inhibition at 100 ug/well measured after 48 hrs by agar well diffusion method; assay type: functional; settings: MTCC 343, 48 h, read-out: DIZ
[9] = system: Streptococcus mutans; experiment: Antibacterial activity against Streptococcus mutans MTCC 497 measured after 24 hrs by NCCL protocol based broth dilution method; assay type: functional; settings: MTCC 497, 24 h
[10] = system: Micrococcus luteus; experiment: Antibacterial activity against Micrococcus luteus MTCC 106 measured after 24 hrs by NCCL protocol based broth dilution method; assay type: functional; settings: MTCC 106, 24 h
[11] = system: Staphylococcus aureus; experiment: Antibacterial activity against Staphylococcus aureus MTCC 3160 measured after 24 hrs by NCCL protocol based broth dilution method; assay type: functional; settings: MTCC 3160, 24 h
[12] = system: Salmonella paratyphi; experiment: Antibacterial activity against Salmonella paratyphi measured after 24 hrs by NCCL protocol based broth dilution method; assay type: functional, Salmonella enterica subsp. enterica serovar Paratyphi A
[13] = system: Salmonella typhi; experiment: Antibacterial activity against Salmonella typhi measured after 24 hrs by NCCL protocol based broth dilution method; assay type: functional, Salmonella enterica subsp. enterica serovar Typhi
[14] = system: Klebsiella pneumoniae; experiment: Antibacterial activity against Klebsiella pneumoniae MTCC 3384 measured after 24 hrs by NCCL protocol based broth dilution method; assay type: functional
[15] = system: Candida albicans; experiment: Antifungal activity against Candida albicans MTCC 3017 measured after 48 hrs by NCCL protocol based broth dilution method; assay type: functional; settings: MTCC 3017, 48 h
[16] = system: Aspergillus fumigatus; experiment: Antifungal activity against Aspergillus fumigatus MTCC 343 measured after 48 hrs by NCCL protocol based broth dilution method; assay type: functional

| SMILES | zone of inhibition at 100 µg/disc [1] | zone of inhibition at 100 µg/disc [2] | zone of inhibition at 100 µg/disc [3] | zone of inhibition at 100 µg/disc [4] | zone of inhibition at 100 µg/disc [5] | zone of inhibition at 100 µg/disc [6] | zone of inhibition at 100 µg/disc [7] | zone of inhibition at 100 µg/disc [8] | MIC [9] | MIC [10] | MIC [11] | MIC ([12]; Salmonella enterica) | MIC ([13]; Salmonella enterica) | MIC ([14]; MTCC 3384, 24 h) | MIC [15] | MIC ([16]; MTCC 343, 48 h) | MIC ([12]; Salmonella enterica subsp. enterica serovar Paratyphi A) | MIC ([13]; Salmonella enterica subsp. enterica serovar Typhi) | MIC [14] | MIC [16] |
| --- | --- | --- | --- | --- | --- | --- | --- | --- | --- | --- | --- | --- | --- | --- | --- | --- | --- | --- | --- | --- |
| CC1(C)O[C@H]2O[C@@H]3COB(c4ccc(/C=N/c5ccc(F)cc5)cc4)O[C@@H]3[C@H]2O1 | 21 mm | 15 mm | 18 mm | 22 mm | 20 mm | 21 mm | 16 mm | 0 mm | 31.2 µg/mL (≈ 78.7 µM) | 62.5 µg/mL (≈ 157 µM) | 62.5 µg/mL (≈ 157 µM) | 31.2 µg/mL (≈ 78.7 µM) | 62.5 µg/mL (≈ 157 µM) | 31.2 µg/mL (≈ 78.7 µM) | 125 µg/mL (≈ 315 µM) | 250 µg/mL (≈ 629 µM) | – | – | – | – |
| CC1(C)O[C@H]2O[C@@H]3COB(c4ccccc4C=O)O[C@@H]3[C@H]2O1 | 20 mm | 18 mm | 20 mm | 21 mm | 26 mm | 27 mm | 26 mm | 25 mm | 62.5 µg/mL (≈ 206 µM) | 62.5 µg/mL (≈ 206 µM) | 62.5 µg/mL (≈ 206 µM) | 31.2 µg/mL (≈ 103 µM) | 31.2 µg/mL (≈ 103 µM) | 15.6 µg/mL (≈ 51.4 µM) | 31.2 µg/mL (≈ 103 µM) | 31.2 µg/mL (≈ 103 µM) | – | – | – | – |
| CC1(C)O[C@H]2O[C@@H]3COC(c4ccc(/C=N\c5ccc(F)cc5)cc4)O[C@@H]3[C@H]2O1 (stereo partly drawn) | 6 mm | 0 mm | 8 mm | 0 mm | 0 mm | 0 mm | 6 mm | 0 mm | 250 µg/mL (≈ 626 µM) | 500 µg/mL (≈ 1250 µM) | 500 µg/mL (≈ 1250 µM) | – | – | – | 500 µg/mL (≈ 1250 µM) | – | inactive | inactive | inactive | inactive |
| CC1(C)O[C@H]2O[C@@H]3COB(c4cccc(/C=N/c5ccc(F)cc5)c4)O[C@@H]3[C@H]2O1 | 18 mm | 11 mm | 20 mm | 21 mm | 24 mm | 16 mm | 19 mm | 0 mm | 62.5 µg/mL (≈ 157 µM) | 125 µg/mL (≈ 315 µM) | 31.2 µg/mL (≈ 78.7 µM) | 31.2 µg/mL (≈ 78.7 µM) | 31.2 µg/mL (≈ 78.7 µM) | 62.5 µg/mL (≈ 157 µM) | 62.5 µg/mL (≈ 157 µM) | 250 µg/mL (≈ 629 µM) | – | – | – | – |
| CCOc1cccc(/C=N/c2cccc(B3OC[C@H]4O[C@@H]5OC(C)(C)O[C@@H]5[C@H]4O3)c2)c1O | 16 mm | 15 mm | 0 mm | 14 mm | 24 mm | 12 mm | 18 mm | 21 mm | 125 µg/mL (≈ 285 µM) | 125 µg/mL (≈ 285 µM) | 250 µg/mL (≈ 569 µM) | 250 µg/mL (≈ 569 µM) | 31.2 µg/mL (≈ 71.1 µM) | 125 µg/mL (≈ 285 µM) | 62.5 µg/mL (≈ 142 µM) | 62.5 µg/mL (≈ 142 µM) | – | – | – | – |
| CC1(C)O[C@H]2O[C@@H]3COB(c4cccc(/N=C/c5cc([N+](=O)[O-])ccc5O)c4)O[C@@H]3[C@H]2O1 | 23 mm | 25 mm | 21 mm | 21 mm | 28 mm | 18 mm | 23 mm | 22 mm | 31.2 µg/mL (≈ 71 µM) | 15.6 µg/mL (≈ 35.5 µM) | 31.2 µg/mL (≈ 71 µM) | 31.2 µg/mL (≈ 71 µM) | 15.6 µg/mL (≈ 35.5 µM) | 62.5 µg/mL (≈ 142 µM) | 31.2 µg/mL (≈ 71 µM) | 62.5 µg/mL (≈ 142 µM) | – | – | – | – |
| CC(C)c1ccc(/N=C/c2cccc(B3OC[C@H]4O[C@@H]5OC(C)(C)O[C@@H]5[C@H]4O3)c2)cc1 | 16 mm | 12 mm | 13 mm | 21 mm | 23 mm | 16 mm | 16 mm | 0 mm | 125 µg/mL (≈ 297 µM) | 250 µg/mL (≈ 593 µM) | 250 µg/mL (≈ 593 µM) | 125 µg/mL (≈ 297 µM) | 62.5 µg/mL (≈ 148 µM) | 125 µg/mL (≈ 297 µM) | 250 µg/mL (≈ 593 µM) | 500 µg/mL (≈ 1190 µM) | – | – | – | – |
| CC1(C)O[C@H]2O[C@@H]3COB(c4ccc(/C=N/c5ccccc5)cc4)O[C@@H]3[C@H]2O1 | 21 mm | 14 mm | 16 mm | 0 mm | 20 mm | 21 mm | 11 mm | 0 mm | 62.5 µg/mL (≈ 165 µM) | 250 µg/mL (≈ 659 µM) | 125 µg/mL (≈ 330 µM) | 500 µg/mL (≈ 1320 µM) | 62.5 µg/mL (≈ 165 µM) | 62.5 µg/mL (≈ 165 µM) | 125 µg/mL (≈ 330 µM) | 500 µg/mL (≈ 1320 µM) | – | – | – | – |
| CC1(C)O[C@H]2O[C@@H]3COB(c4cccc(/N=C/c5cc(Br)ccc5O)c4)O[C@@H]3[C@H]2O1 | 21 mm | 22 mm | 13 mm | 14 mm | 24 mm | 21 mm | 18 mm | 0 mm | 62.5 µg/mL (≈ 132 µM) | 31.2 µg/mL (≈ 65.9 µM) | 125 µg/mL (≈ 264 µM) | 62.5 µg/mL (≈ 132 µM) | 31.2 µg/mL (≈ 65.9 µM) | 62.5 µg/mL (≈ 132 µM) | 62.5 µg/mL (≈ 132 µM) | 250 µg/mL (≈ 527 µM) | – | – | – | – |
| Cc1ccc(/N=C/c2cccc(B3OC[C@H]4O[C@@H]5OC(C)(C)O[C@@H]5[C@H]4O3)c2)cc1 | 13 mm | 12 mm | 13 mm | 12 mm | 20 mm | 20 mm | 17 mm | 14 mm | 250 µg/mL (≈ 636 µM) | 250 µg/mL (≈ 636 µM) | 125 µg/mL (≈ 318 µM) | 500 µg/mL (≈ 1270 µM) | 125 µg/mL (≈ 318 µM) | 125 µg/mL (≈ 318 µM) | 250 µg/mL (≈ 636 µM) | 125 µg/mL (≈ 318 µM) | – | – | – | – |
| CC(C)c1ccc(/N=C/c2ccc(B3OC[C@H]4O[C@@H]5OC(C)(C)O[C@@H]5[C@H]4O3)cc2)cc1 | 19 mm | 13 mm | 16 mm | 0 mm | 22 mm | 24 mm | 12 mm | 0 mm | 125 µg/mL (≈ 297 µM) | 250 µg/mL (≈ 593 µM) | 125 µg/mL (≈ 297 µM) | 500 µg/mL (≈ 1190 µM) | 62.5 µg/mL (≈ 148 µM) | 31.2 µg/mL (≈ 74.2 µM) | 250 µg/mL (≈ 593 µM) | 500 µg/mL (≈ 1190 µM) | – | – | – | – |
| CC1(C)O[C@H]2O[C@@H]3COB(c4cccc(/C=N/c5ccc(Cl)cc5)c4)O[C@@H]3[C@H]2O1 | 16 mm | 17 mm | 15 mm | 13 mm | 25 mm | 22 mm | 11 mm | 0 mm | 125 µg/mL (≈ 302 µM) | 125 µg/mL (≈ 302 µM) | 250 µg/mL (≈ 604 µM) | 250 µg/mL (≈ 604 µM) | 31.2 µg/mL (≈ 75.5 µM) | 62.5 µg/mL (≈ 151 µM) | 250 µg/mL (≈ 604 µM) | 500 µg/mL (≈ 1210 µM) | – | – | – | – |
| CN[C@@H]1[C@H](O[C@H]2[C@H](O[C@H]3[C@H](O)[C@@H](O)[C@H](N=C(N)N)[C@@H](O)[C@@H]3N=C(N)N)O[C@@H](C)[C@]2(O)C=O)O[C@@H](CO)[C@H](O)[C@H]1O.CN[C@@H]1[C@H](O[C@H]2[C@H](O[C@H]3[C@H](O)[C@@H](O)[C@H](N=C(N)N)[C@@H](O)[C@@H]3N=C(N)N)O[C@@H](C)[C@]2(O)C=O)O[C@@H](CO)[C@H](O)[C@H]1O.O=S(=O)(O)O.O=S(=O)(O)O.O=S(=O)(O)O [STREPTOMYCIN SULFATE] | 26 mm | 20 mm | 26 mm | 23 mm | 25 mm | 25 mm | – | – | 31.2 µg/mL | 31.2 µg/mL | 15.6 µg/mL | 15.6 µg/mL | 31.2 µg/mL | 31.2 µg/mL | – | – | – | – | – | – |
| C[C@@H]1C[C@@H]([C@H](O)CC2CC(=O)NC(=O)C2)C(=O)[C@@H](C)C1 [CYCLOHEXIMIDE] | – | – | – | – | – | – | – | 25 mm | – | – | – | – | – | – | – | 125 µg/mL (≈ 444 µM) | – | – | – | – |
| OC(Cn1cncn1)(Cn1cncn1)c1ccc(F)cc1F [FLUCONAZOLE] | – | – | – | – | – | – | 18 mm | – | – | – | – | – | – | – | 62.5 µg/mL (≈ 204 µM) | – | – | – | – | – |
